PubChem BioAssay AID1259407 (Chemical Carcinogenesis Research Information System (CCRIS), 2018)
Activity calls are given as the source filed them. No rule for the calls is given here.

System: CCRIS mutagenicity, Ames/micronucleus/aberration tests
Experiment: CCRIS mutagenicity studies
[1] = Test System: AMES SALMONELLA TYPHIMURIUM, Strain/Indicator: TA98, Metabolic Activation: NONE, Method: STANDARD PLATE
[2] = Test System: AMES SALMONELLA TYPHIMURIUM, Strain/Indicator: TA100, Metabolic Activation: NONE, Method: STANDARD PLATE

With `ClC(Cl)(Cl)c1ccccc1` the mutagenic call (Test System: AMES SALMONELLA TYPHIMURIUM, Strain/Indicator: TA98, Metabolic Activation: HAMSTER, LIVER, S-9, AROCLOR 1254 (30%), Method: PREINCUBATION) was “active; positive”, the mutagenic call (Test System: AMES SALMONELLA TYPHIMURIUM, Strain/Indicator: TA98, Metabolic Activation: NONE, Method: PREINCUBATION) was “inactive; negative” and the mutagenic call (Test System: AMES SALMONELLA TYPHIMURIUM, Strain/Indicator: TA98, Metabolic Activation: RAT, LIVER, S-9, AROCLOR 1254 (30%), Method: PREINCUBATION) was “active; positive”. For the same molecule, the mutagenic call (Test System: AMES SALMONELLA TYPHIMURIUM, Strain/Indicator: TA98, Metabolic Activation: RAT, LIVER, S-9, AROCLOR 1254, Method: PREINCUBATION) was “active; positive”, the mutagenic call (Test System: AMES SALMONELLA TYPHIMURIUM, Strain/Indicator: TA100, Metabolic Activation: HAMSTER, LIVER, S-9, AROCLOR 1254 (30%), Method: PREINCUBATION) was “active; positive” and the mutagenic call (Test System: AMES SALMONELLA TYPHIMURIUM, Strain/Indicator: TA100, Metabolic Activation: NONE, Method: PREINCUBATION) was “active; positive”. The mutagenic call (Test System: AMES SALMONELLA TYPHIMURIUM, Strain/Indicator: TA100, Metabolic Activation: RAT, LIVER, S-9, AROCLOR 1254 (30%), Method: PREINCUBATION) was “active; positive”, the mutagenic call (Test System: AMES SALMONELLA TYPHIMURIUM, Strain/Indicator: TA100, Metabolic Activation: RAT, LIVER, S-9, AROCLOR 1254, Method: PREINCUBATION) was “active; positive” and the mutagenic call (Test System: AMES SALMONELLA TYPHIMURIUM, Strain/Indicator: TA1535, Metabolic Activation: RAT, LIVER, S-9, AROCLOR 1254, Method: PREINCUBATION) was “active; positive”.

For `CN1CCN(c2ccc3nc(CCCc4ccc5nc(-c6ccc(N(CCCl)CCCl)cc6)[nH]c5c4)[nH]c3c2)CC1`, the mutagenic call [1] was “inactive; negative”, the mutagenic call [2] was “inactive; negative” and the mutagenic call (Test System: AMES SALMONELLA TYPHIMURIUM, Strain/Indicator: TA102, Metabolic Activation: NONE, Method: STANDARD PLATE) was “active; positive”.

In the case of `ClC(Cl)C(Cl)Cl`, the mutagenic call (End Point: IN VITRO CHROMOSOMAL ABERRATIONS, Test System: CHINESE HAMSTER OVARY CELLS, Metabolic Activation: NONE) is reported as “inactive; negative; precipitation occurred at 653 ug/ml”, the mutagenic call (End Point: IN VITRO CHROMOSOMAL ABERRATIONS, Test System: CHINESE HAMSTER OVARY CELLS, Metabolic Activation: RAT, LIVER, S-9, AROCLOR 1254) is reported as “inactive; negative” and the mutagenic call (Test System: AMES SALMONELLA TYPHIMURIUM, Strain/Indicator: TA97, Metabolic Activation: NONE, Method: STANDARD PLATE) is reported as “active; positive”. The mutagenic call (Test System: AMES SALMONELLA TYPHIMURIUM, Strain/Indicator: TA97, Metabolic Activation: RAT, LIVER, S-9, AROCLOR 1254, Method: STANDARD PLATE) was “active; positive”, the mutagenic call [1] was “active; positive” and the mutagenic call (Test System: AMES SALMONELLA TYPHIMURIUM, Strain/Indicator: TA98, Metabolic Activation: RAT, LIVER, S-9, AROCLOR 1254, Method: STANDARD PLATE) was “active; positive”. For the same molecule, the mutagenic call [2] was “active; positive”, the mutagenic call (Test System: AMES SALMONELLA TYPHIMURIUM, Strain/Indicator: TA100, Metabolic Activation: RAT, LIVER, S-9, AROCLOR 1254, Method: STANDARD PLATE) was “active; positive” and the mutagenic call (Test System: AMES SALMONELLA TYPHIMURIUM, Strain/Indicator: TA104, Metabolic Activation: NONE, Method: STANDARD PLATE) was “inactive; negative”. The mutagenic call (Test System: AMES SALMONELLA TYPHIMURIUM, Strain/Indicator: TA104, Metabolic Activation: RAT, LIVER, S-9, AROCLOR 1254, Method: STANDARD PLATE) was “active; positive”, the mutagenic call (Test System: AMES SALMONELLA TYPHIMURIUM, Strain/Indicator: TA1530, Metabolic Activation: NONE, Method: SPOT) was “active; positive” and the mutagenic call (Test System: AMES SALMONELLA TYPHIMURIUM, Strain/Indicator: TA1535, Metabolic Activation: NONE, Method: SPOT) was “active; positive”.

For `O=[N+]([O-])c1cccc2c1-c1cccc3cccc-2c13`, the mutagenic call [1] was “active; positive”.

In the case of `C1=CC2CCCCC2c2ccccc21` (configuration not stated), the mutagenic call (Test System: AMES SALMONELLA TYPHIMURIUM, Strain/Indicator: TA98, Metabolic Activation: RAT, LIVER, S-9, SODIUM PHENOBARBITAL AND BETA-NAPHTHOFLAVONE, Method: STANDARD PLATE) is reported as “active; positive” and the mutagenic call (Test System: AMES SALMONELLA TYPHIMURIUM, Strain/Indicator: TA100, Metabolic Activation: RAT, LIVER, S-9, SODIUM PHEOBARBITAL AND BETA-NAPHTHOFLAVONE, Method: STANDARD PLATE) is reported as “active; positive”.
